Where a name gives a salt, the structure may show the parent alone.
Experiments:
[1] = system: U-87 gliospheres xenografts; assay: Xenograft of U-87 gliospheres in NSG mice; format: in vivo; settings: 3 mg/Kg body weight, 5 consecutive days immediately after xenograft, intraperitoneal
Procedure: FIG. 4.—ICI 118,551 and Propranolol delay the tumor progression of U-87 xenografts in NSG immunodeppressed mice. A Xenograft using U-87 adherent cells: Mice (n=30) were inoculated with 10^6 cells of U-87 glioblastoma cell line, in the flank, as xenografts. Tumor volume was measured every 3 days. In A, when tumors reached around 100 mm^3 volume, mice were divided in 3 groups (n=9-10). One group was treated daily with 10 mg/Kg body weight with propranolol, another group with the same dose of ICI118,551, and the third group only with vehicle (DMSO). Drugs were intraperitoneally injected. […] B Xenograft using U-87 gliospheres: Mice were inoculated with 10^5 spheroids from the glioblastoma cell line U-87. […] The tumors were measured from the moment they were big enough to be sized.
In the case of B, mice were divided in 3 groups of 10 mice, and were treated the first 5 days after xenograft establishment with intraperitoneal injection of propranolol, or ICI118,551 at 3 mg/Kg body, or vehicle. […] From this moment on, tumor size was measured every 2-3 days along 4 weeks, and then the mice were sacrificed.
On the other hand, xenografts using U-87 gliospheres were also used. […] The tumors were measured from the moment they were big enough to be sized.

U-87 xenografts = assay: Xenograft of U-87 adherent cells in NSG mice; format: in vivo; settings: intraperitoneal; for decrease in the tumor volume: 10 mg/Kg body daily, from tumor volume around 100 mm^3, versus vehicle; for adverse effects: 10 mg/Kg body weight daily, NSG mice
Procedure: FIG. 4.—ICI 118,551 and Propranolol delay the tumor progression of U-87 xenografts in NSG immunodeppressed mice. A Xenograft using U-87 adherent cells: Mice (n=30) were inoculated with 10^6 cells of U-87 glioblastoma cell line, in the flank, as xenografts. Tumor volume was measured every 3 days. In A, when tumors reached around 100 mm^3 volume, mice were divided in 3 groups (n=9-10). One group was treated daily with 10 mg/Kg body weight with propranolol, another group with the same dose of ICI118,551, and the third group only with vehicle (DMSO). Drugs were intraperitoneally injected. […] B Xenograft using U-87 gliospheres: Mice were inoculated with 10^5 spheroids from the glioblastoma cell line U-87. Mice were divided in 3 groups of 9-10 animals and treated immediately after xenograft for 5 consecutive days with either 3 mg/Kg body weight of propranolol, or ICI 118,551, or only vehicle. The tumors were measured from the moment they were big enough to be sized.
Male 7-8 weeks old NOD scid gamma (NSG) mice were injected in the dorsal flank with a total of either 10^6 cells of U-87 cell line (A), or with 10^5 cells coming from disaggregated gliospheres (B). In the case of A, when tumor size reached 100 mm^3 volume, mice were divided at random in 3 groups, of 9/10 mice each. One group was treated with intraperitoneal daily injection of 10 mg/Kg body of propranolol, other group with the same amount of ICI118,551, and finally, a control group was injected with vehicle. Tumor size was measured by a caliper every 2-3 days. Mice were sacrificed when tumor volume average of the control group reached an end point established on our ethical procedures.
Xenografts were made using U-87 adherent cells: Mice (n=30) were inoculated with 10^6 cells of U-87 glioblastoma cell line, in the flank, as xenografts. Tumor volume was measured every 3 days. When tumors reached around 100 mm^3 volume, mice were divided in 3 groups (n=9-10). One group was treated daily with 10 mg/Kg body weight with propranolol, another group with the same dose of ICI118,551, and the third group only with vehicle (DMSO). Drugs were intraperitoneally injected.

[2] = system: U-87 glioblastoma cell line; assay: RT-qPCR of stemness and neural differentiation marker mRNAs in U-87; format: cell-based, human; settings: 48 hours; mRNA by RT-qPCR; dose-dependent
Procedure: FIG. 3.—ICI 118,551 and propranolol decreased stemness biomarker expression in U-87 glioblastoma cell line, but increased the neural differentiation markers. A: The treatment of U-87 with ICI-118,551 and propranolol during 48 hours decreases the expression of stemness associated genes as GD3 synthase, ALDH1, Prominin (CD133), Sox2 and Nanog, whereas B: favors the expression of genes involved in neural cell differentiation (MAP2, GFAP and Nestin). Expression of the corresponding mRNAs was measured by RT-qPCR.
(§1) RNAt was isolated using the Direct-zol RNA MiniPrep Kit (ZymoResearch) from U-87 cells washed with PBS, scraped off the plates and spun down. The pellet was treated with the Tri Reagent and homogenized for 5 min at room temperature before using the MiniPrep Kit as per instructions. The quality and concentration of the RNAt was evaluated by measuring the absorbance at 260, 230 and 280 nm with an ND-1000 spectrophotometer (NanoDrop Technologies, Wilmington, DE, USA). In all cases, the expected 260/280 (˜2.0) and 260/230 (2.0-2.2) ratio values accepted for pure RNA were obtained. To detect the two target miRs, 0.5 μg of the RNAt extracted from the cells was used for hybridization prior to measurement on the dual amperometric platform.
(§2) The qScript microRNA Quantification System (Quanta BioSciences, Inc., Gaithersburg, MD, USA) was used to assess miR-21 and miR-205 expression. In brief, cDNA was synthesized using the qScript microRNA cDNA Synthesis Kit, using 10 ng of initial RNA per PCR reaction. The PCR conditions consisted of an initial activation at 50° C. for 2 min, followed by 40 cycles of 95° C. for 5 s, and 60° C. for 30 s in LightCycler 480 Real-Time PCR System (Roche). The Ct (threshold cycle) value for each primer was normalized to that of RNU6. To assess gene expression, cDNA was synthesized with the transcriptor first strand cDNA synthesis Kit (Roche) under the following PCR conditions: 40 amplification cycles of 95° C. for 10 seconds, 60° C. for 30 seconds and 72° C. for 30 seconds. ACTB was used as a reference gene for normalization and the real-time PCR reactions were performed in triplicate using the PerfeCTa SYBR Green SuperMix (Quanta BioSciences) for miRNAs and the FastStart Universal SYBR Green Master (Roche) for gene expression. The expression level of each gene was determined by the relative standard curve method and the primer sequences for target genes were obtained from the Universal ProbeLibrary Assay Design Center.
However, mRNA from genes involved in neural cell differentiation, such as MAP2, GFAP and nestin (FIG. 3B), were increased in their expression (FIG. 3B). The expression of the corresponding mRNAs was measured by RT-qPCR.

U-87 stem cells = assay: Extreme limited dilution assay (ELDA) for oncosphere formation; format: cell-based, human; settings: different concentrations; spheres quantified at 14 days
Procedure: (§3) A: photographs of gliospheres formation after 72 hours of drug treatment. U-87 cells were cultured in medium for gliosphere formation, and either treated with vehicle (control, on the left), or with ICI 118,551, and propranolol at different concentrations from 10 to 100 μM. […] B: Limit dilution assay experiment (ELDA) for oncosphere formation in the presence of different concentrations of ICI 118,551 and propranolol.
(§4) Following the protocol described elsewhere (Diaz-Guerra, E.; Lillo, M. A.; Santamaria, S.; Garcia-Sanz, J. A., Intrinsic cues and hormones control mouse mammary epithelial tree size. FASEB J 2012, 26 (9), 3844-53). Cells were detached from the plate with trypsin (Invitrogen) and plated in complete medium (DMEM/F-12 medium with GlutaMAX) supplemented with B27 (Gibco), 10 ng/ml epidermal growth factor (EGF: Invitrogen) and 10 ng/ml basic fibroblast growth factor (bFGF: Millipore) and they were maintained at 37° C. in 5% CO2. For the ELDA assay cells were dissociated to single cells with trypsin, and seeded at different dilutions (from 100 to 10 for U-87 cells) in sphere complete media following procedures described in Ponti, D et al., (Cancer Res 2005, 65 (13), 5506-11.). The final number of spheres was quantified at 14 days, and the final data and statistical significance was obtained with ELDA software (Hu, Y. et al J Immunol Methods 2009, 347 (1-2), 70-8). […]

U-87 gliospheres = assay: Gliosphere formation of U-87 cells under drug treatment; format: cell-based, human; settings: 10 to 100 μM; 72 hours of drug treatment
Procedure: as §3, §4

β2-adrenergic receptor = settings: reported in the literature; cited from earlier work
[3] = system: U87 Glioblastoma Cell Line; assay: Expression of miR-21 and its targets PDCD4 and PTEN in U87 cells; format: cell-based, human; settings: 48 hours, increasing amounts
Procedure: FIG. 5. […] Furthermore, ICI increases the expression levels of […] targets such as PDCD4-proapoptotic agents1 (middle)—and PTEN—a glioblastoma suppressor (right).
as §1
as §2, with “ACTB was used as a reference gene for normalization and the real-time PCR reactions were performed in triplicate using the PerfeCTa SYBR Green SuperMix (Quanta BioSciences) for miRNAs and the FastStart Universal SYBR Green Master (Roche) for gene expression.” left out, “Center. […]” for “Center.”

[4] = system: human glioblastoma cell line U-87; assay: U-87 cell viability by luminescence (ATP-Glo kit, Promega); format: cell-based
From the text: FIG. 1.—ICI 118,551 is active as an antitumoral agent decreasing cell viability in the glioblastoma cell line and including the stem cell subpopulation. A: U-87 cell line expresses beta-adrenergic receptors type 2, as shown by confocal microscopy using a monoclonal antibody against human β2 adrenergic receptors (Abcam). B: ICI-118551 decreases viability of the human glioblastoma cell line U-87 either when grown in liquid suspension as oncospheres (gliospheres, stem cells) or in adhesion. Viability was quantified by luminescence using the ATP-Glo kit from Promega. C. β2-adrenergic receptor expression in the human glioblastoma cell line U87 was confirmed by mRNA expression by quantitative PCR in 3D cultures as gliospheres (HUVEC as positive control for β2-adrenergic receptor expression).

| SMILES | rate of tumor growth versus vehicle treated mice [1] | decrease in the tumor volume (U-87 xenografts) | adverse effects (U-87 xenografts) | expression of neural cell differentiation genes MAP2, GFAP and nestin [2] | expression of stemness associated genes GD3 synthase, ALDH1, prominin (CD 133), Sox2 and nanog [2] | ELDA dilution factor compared to control (U-87 stem cells) | inhibition of gliosphere formation (U-87 gliospheres) | β2/β1 selectivity ratio (β2-adrenergic receptor) | expression level of PDCD4 [3] | expression level of PTEN [3] | mRNA-21 expression ([3]; compared with Propranolol) | differential sensitivity to the drug, adhesion versus 3D gliospheres ([4]; 2D cells in adhesion compared with 3D gliospheres in suspension) | viability of the cancer stem cells ([4]; 3D gliospheres, low μM concentrations) | viability of U-87 ([4]; different doses, grown in liquid suspension as oncospheres (gliospheres) or in adhesion, ATP-Glo luminescence) |
| --- | --- | --- | --- | --- | --- | --- | --- | --- | --- | --- | --- | --- | --- | --- |
| CC(C)NCC(O)COc1cccc2ccccc12 (stereo not shown) [propranolol] | significant delay | around 30% | no adverse effects observed | increased | decreased significantly | increases | dose-dependent inhibition | – | – | – | – | – | – | – |
| COc1ccc(OC)c(C(O)C(C)NC(C)(C)C)c1 (racemic) [Butoxamine, DL-erythro-α-(2,5-dimethoxyphenyl)-β-t-butyl aminopropanol hydrochloride] | – | – | – | – | – | – | – | at least 17 | – | – | – | – | – | – |
| Cc1ccc(OCC(O)C(C)NC(C)C)c2c1CCC2 [ICI 118,551, erythro-D,L-1(methylinden-4-yloxy)-3-isopropylaminobutan-2-ol] | significant delay | around 30% | no adverse effects observed | increased | decreased significantly | increases | dose-dependent inhibition | at least 123 | increases | increases | notably decreased | more sensitive the cells grown in adhesion than the 3D gliospheres | strongly affects the viability | decreased the viability |

From patent US12622884B2, “Treatment and prevention of glioblastoma” (CONSEJO SUPERIOR DE INVESTIGACIONES CIENTÍFICAS, priority 2018, dated 2026)
